Source: ChEMBL document CHEMBL6127049, “Discovery of the selective and nanomolar inhibitor of DPP-4 more potent than sitagliptin by structure-guided rational design” (Eur J Med Chem, 2024)

Experiments:
[1] = target: Dipeptidyl peptidase 4 (Homo sapiens, UniProt P27487); assay: Inhibition of DPP4 (unknown origin) assessed as hydrolysis rate using Gly-pro-p-nitroanilide as substrate measured after 20 mins incubation by fluorometric assay
[2] = organism: Rattus norvegicus; assay: Anti-diabetic activity in STZ-induced type 2 diabetes male Wistar albino rat model assessed as fasting blood glucose level measured on day 1; assay type: functional
[3] = organism: Rattus norvegicus; assay: Anti-diabetic activity in STZ-induced type 2 diabetes male Wistar albino rat model assessed as fasting blood glucose level measured on day 28; assay type: functional

Sequence of Dipeptidyl peptidase 4 (P27487 whole entry): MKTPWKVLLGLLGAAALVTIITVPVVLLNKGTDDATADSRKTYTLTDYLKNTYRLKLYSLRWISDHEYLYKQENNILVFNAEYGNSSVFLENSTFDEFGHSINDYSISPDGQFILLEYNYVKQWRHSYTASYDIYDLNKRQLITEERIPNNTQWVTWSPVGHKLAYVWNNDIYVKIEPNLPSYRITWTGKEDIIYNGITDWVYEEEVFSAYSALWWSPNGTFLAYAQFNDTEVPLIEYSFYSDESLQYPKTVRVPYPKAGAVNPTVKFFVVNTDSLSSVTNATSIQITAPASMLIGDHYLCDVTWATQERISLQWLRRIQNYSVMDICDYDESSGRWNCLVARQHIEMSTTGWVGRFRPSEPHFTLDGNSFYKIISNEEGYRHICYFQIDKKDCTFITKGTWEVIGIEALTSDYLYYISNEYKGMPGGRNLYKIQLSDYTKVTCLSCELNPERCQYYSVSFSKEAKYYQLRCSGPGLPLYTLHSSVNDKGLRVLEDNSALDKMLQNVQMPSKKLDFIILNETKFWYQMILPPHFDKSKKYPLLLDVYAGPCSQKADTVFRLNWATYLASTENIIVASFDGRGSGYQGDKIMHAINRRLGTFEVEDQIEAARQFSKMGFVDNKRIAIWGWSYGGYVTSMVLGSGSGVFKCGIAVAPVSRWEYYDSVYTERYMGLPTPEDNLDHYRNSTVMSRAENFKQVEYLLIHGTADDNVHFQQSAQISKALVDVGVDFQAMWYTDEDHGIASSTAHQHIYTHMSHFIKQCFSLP

Row | Structure (SMILES) | IC50 [1] | Activity [2] | Activity [3]
1 | CC1=C(CC(=O)N2Cc3cn(S(C)(=O)=O)nc3C2)C(c2ccc(F)c(F)c2)NC(=O)N1 (stereo unspecified) | 478 nM | – | –
2 | Cc1nc(N2Cc3cn(S(C)(=O)=O)nc3C2)nc(C)c1CC(=O)O | 769 nM | – | –
3 | CC1=C([N+](=O)[O-])C(c2ccc(F)c(F)c2)N=C(N)N1C(=O)CN1CCCC1C#N (stereo unspecified) | 710 nM | – | –
4 | CS(=O)(=O)n1cc2c(n1)CN([C@H]1CO[C@H](c3cc(F)ccc3F)[C@@H](N)C1)C2 [OMARIGLIPTIN] | – | 293 mg/dL | 105 mg/dL
5 | CC1=C([N+](=O)[O-])C(c2ccc(F)c(F)c2)N=C(N)N1C(=O)CN1CCCC(N)C1 (stereo unspecified) | 821 nM | – | –
6 | CC1=C(CC(=O)N2CCCC2C#N)C(c2ccc(F)c(F)c2)NC(=O)N1 (stereo unspecified) | 266 nM | – | –
7 | CC1=C(CC(=O)N2CCCC2C#N)C(C)NC(=O)N1 (stereo unspecified) | 1030 nM | – | –
8 | CC1=C(CC(=O)N2CCCC(N)C2)C(c2ccc(F)c(F)c2)NC(=O)N1 (stereo unspecified) | 1040 nM | – | –
9 | CC1=C(CC(=O)N2CCCC(N)C2)C(C)NC(=O)N1 (stereo unspecified) | 1190 nM | – | –
10 | Cc1nc(N2CCn3c(nnc3C(F)(F)F)C2)nc(C)c1CC(=O)O | 226 nM | – | –
